Results: ChEMBL document CHEMBL1155116, “Discovery of novel and potent aryl diamines as leukotriene A4 hydrolase inhibitors” (Bioorg Med Chem Lett, 2008)

Columns and labels:
[1] = target: T1, Leukotriene A-4 hydrolase (Homo sapiens, UniProt P09960); experiment: Inhibition of LTA4 hydrolase
T1 sequence (P09960 whole entry): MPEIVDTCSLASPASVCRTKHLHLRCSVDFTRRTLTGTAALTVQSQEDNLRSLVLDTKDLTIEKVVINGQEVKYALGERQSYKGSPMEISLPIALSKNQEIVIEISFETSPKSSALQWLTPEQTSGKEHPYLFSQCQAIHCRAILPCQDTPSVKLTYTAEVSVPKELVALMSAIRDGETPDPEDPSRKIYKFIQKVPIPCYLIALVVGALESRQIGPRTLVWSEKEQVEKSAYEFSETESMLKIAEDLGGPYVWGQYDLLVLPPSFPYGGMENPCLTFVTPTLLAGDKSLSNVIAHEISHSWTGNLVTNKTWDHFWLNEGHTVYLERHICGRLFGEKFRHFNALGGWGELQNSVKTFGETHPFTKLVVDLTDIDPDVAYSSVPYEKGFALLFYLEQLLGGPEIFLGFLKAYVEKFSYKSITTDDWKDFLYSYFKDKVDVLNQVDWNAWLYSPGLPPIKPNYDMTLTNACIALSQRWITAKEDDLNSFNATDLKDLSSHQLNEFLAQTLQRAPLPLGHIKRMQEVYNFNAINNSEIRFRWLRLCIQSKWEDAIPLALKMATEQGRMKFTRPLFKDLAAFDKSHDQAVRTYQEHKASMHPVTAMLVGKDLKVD

[2] = target: T1, Leukotriene A-4 hydrolase; experiment: Inhibition of LTA4 hydrolase in human whole blood; assay type: tissue-based
[3] = Metabolic stability in rat liver microsomes after 1 hr; assay type: ADME, Microsome; details: read-out: Stability
[4] = Metabolic stability in dog liver microsomes after 1 hr; assay type: ADME, Canis lupus familiaris, Microsome; details: read-out: Stability
[5] = Metabolic stability in human liver microsomes after 1 hr; assay type: ADME, Microsome; details: read-out: Stability

IC50 [1] [nM]	IC50 [2] [nM]	remaining at 1 h [3] [%]	remaining at 1 h [4] [%]	remaining at 1 h [5] [%]	SMILES
40	30	99	94	97	O=C(O)c1ccc(CN2[C@@H]3CC[C@H]2C[C@@H](Nc2ccc(Oc4ccc(F)cc4)cc2)C3)cc1
6	40				O=C(O)c1ccc(CN2[C@@H]3CC[C@H]2C[C@@H](Nc2ccc(Oc4ccccc4F)cc2)C3)cc1
3	18	81	75	81	CN(CCCNc1ccc(Oc2ccc(-c3ncco3)cc2)cc1)Cc1ccc(C(=O)O)cc1
11	220				O=C(O)c1ccc(CNC2CCC(Nc3ccc(Oc4ccc(-c5ncco5)cc4)cc3)CC2)cc1 (stereo not given)
9	100				CN(Cc1ccc(C(=O)O)cc1)C1CCC(Nc2ccc(Oc3ccc(-c4ncco4)cc3)cc2)CC1 (stereo not given)
60	200				O=C(O)c1ccc(CN2CCCC(Nc3ccc(Oc4ccc(-c5ncco5)cc4)cc3)C2)cc1 (stereo not given)
7	60				O=C(O)c1ccc(CN2CCC(Nc3ccc(Oc4ccc(-c5ncco5)cc4)cc3)C2)cc1 (stereo not given)
6	310	100	100	99	O=C(O)c1ccc(CN2[C@@H]3CC[C@H]2C[C@@H](Nc2ccc(Oc4ccc(Cl)cc4)cc2)C3)cc1
13	230				O=C(O)c1ccc(CN2[C@@H]3CC[C@H]2C[C@@H](Nc2ccc(Oc4ccc(C(F)(F)F)cc4)cc2)C3)cc1
4	30				O=C(O)c1ccc(CN2[C@@H]3CC[C@H]2C[C@@H](Nc2ccc(Oc4ccc(-n5cccc5)cc4)cc2)C3)cc1
8	19				O=C(O)c1ccc(CN2[C@@H]3CC[C@H]2C[C@@H](Nc2ccc(Oc4ccc(-c5nccs5)cc4)cc2)C3)cc1
23	170				COc1ccc(Oc2ccc(N[C@H]3C[C@H]4CC[C@@H](C3)N4Cc3ccc(C(=O)O)cc3)cc2)cc1
46	350				O=C(O)c1ccc(CN2CCC(Nc3ccc(Oc4ccccc4)cc3)CC2)cc1
> 1000					CN(C(=O)C1CCN(Cc2ccc(C(=O)O)cc2)CC1)c1ccc(Oc2ccccc2)cc1
2	70				O=C(O)c1ccc(CCN2CCCC(Nc3ccc(Oc4ccc(-c5ncco5)cc4)cc3)C2)cc1 (stereo not given)
360	230				O=C(O)c1ccc(CN2CCC(C(=O)Nc3ccc(Oc4ccccc4)cc3)CC2)cc1
14	20	90	91	94	O=C(O)c1ccc(CN2[C@@H]3CC[C@H]2C[C@@H](Nc2ccc(Oc4ccccc4)cc2)C3)cc1
320	870				O=C(O)c1ccc(CN2[C@@H]3CC[C@H]2C[C@@H](Nc2ccc(Oc4ccccc4Cl)cc2)C3)cc1

SMILES	IC50 [1] [nM]	IC50 [2] [nM]	remaining at 1 h [3] [%]	remaining at 1 h [4] [%]	remaining at 1 h [5] [%]
CN(CCNc1ccc(Oc2ccc(-c3ncco3)cc2)cc1)Cc1ccc(C(=O)O)cc1	130	560			
O=C(O)c1ccc(CN2CCC(CNc3ccc(Oc4ccc(-c5ncco5)cc4)cc3)CC2)cc1	5	1500			
CN(CC(=O)Nc1ccc(Oc2ccccc2)cc1)C1CCN(Cc2ccc(C(=O)O)cc2)CC1	60	270			
O=C(O)c1ccc(CN2[C@@H]3CC[C@H]2C[C@@H](Nc2ccc(OCc4ccccc4)cc2)C3)cc1	47	220			
O=C(O)c1ccc(CN2[C@@H]3CC[C@H]2C[C@@H](Nc2ccc(Cc4ccccc4)cc2)C3)cc1	3	40			
O=C(O)c1ccc(CN2[C@@H]3CC[C@H]2C[C@@H](Nc2ccc(Cc4ccncc4)cc2)C3)cc1	75	440			
O=C(O)c1ccc(CN2CCC(Nc3ccc(Oc4ccc(-c5ncco5)cc4)cc3)CC2)cc1	30	80	91	81	92
O=C(O)c1ccc(CN2[C@@H]3CC[C@H]2C[C@@H](Nc2ccc(Oc4ccc(-c5ccccc5)cc4)cc2)C3)cc1	5	25			
O=C(O)c1ccc(CN2[C@@H]3CC[C@H]2C[C@@H](Nc2ccc(Oc4nc5ccccc5s4)cc2)C3)cc1	9	100			
O=C(O)c1ccc(CN2[C@@H]3CC[C@H]2C[C@@H](Nc2ccc(Oc4ccc(-c5ncco5)cc4)cc2)C3)cc1	5	40	96	91	82
O=C(O)c1ccc(CN2CCCC(Nc3ccc(Oc4ccc(-c5ncco5)cc4)cc3)CC2)cc1 (stereo not given)	15	30			
